The values that follow are results of earlier work, collected in patent US20150366832A1, “CARBIDOPA/LEVODOPA GASTRORETENTIVE DRUG DELIVERY” (INTEC PHARMA LTD., priority 2008, published 2015).

With `C[C@@](Cc1ccc(O)c(O)c1)(NN)C(=O)O` [Carbidopa], where the note is “Carbidopa given with Levodopa”, the “reduction of the amount of Levodopa required to produce a given response” value is given as “about 75%”. Moreover, the “crossing of the blood-brain barrier” value (human, in vivo) is listed as “does not cross the blood-brain barrier”.

Turning to `N[C@@H](Cc1ccc(O)c(O)c1)C(=O)O` [Levodopa], under “Carbidopa and Levodopa administered together”, the half-life entry is on record as “about 1.5 hours”. The plasma half-life entry (without Carbidopa) is given as “about 50 minutes”.
